Read-outs that look alike come from different tables or passages of the source.
Experiments:
[1] = target: T1, human GIP receptor (hGIPR) (Homo sapiens, UniProt P48546); experiment: [125I]-GIP binding, SPA with membranes of CHO cells expressing hGIPR
T1 construct: expressed in transfected cells; crude membranes
T1 sequence (P48546 22-466): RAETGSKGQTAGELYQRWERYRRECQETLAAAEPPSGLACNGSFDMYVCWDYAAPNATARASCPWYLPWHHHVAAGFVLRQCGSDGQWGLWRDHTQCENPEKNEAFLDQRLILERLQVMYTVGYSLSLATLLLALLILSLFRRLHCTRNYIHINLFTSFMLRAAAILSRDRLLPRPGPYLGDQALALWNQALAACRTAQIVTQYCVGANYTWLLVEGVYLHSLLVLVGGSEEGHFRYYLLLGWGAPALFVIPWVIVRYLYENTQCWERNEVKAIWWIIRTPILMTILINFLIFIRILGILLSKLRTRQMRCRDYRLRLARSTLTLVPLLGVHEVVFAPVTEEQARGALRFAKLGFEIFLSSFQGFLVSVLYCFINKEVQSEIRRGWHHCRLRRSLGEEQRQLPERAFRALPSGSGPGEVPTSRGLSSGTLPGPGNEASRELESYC

hGIPR = target: T2, hGIPR (Homo sapiens, UniProt P48546); experiment: Functional cAMP formation (HTRF) in HEK-293 clonal cells expressing hGIPR, 0.1% bovine casein, without or with 1.0% human serum albumin; assay type: cell-based; conditions: for Emax: percent of maximal response to GIP(1-42)NH2; for EC50: cAMP
T2 construct: expressed in transfected cells
T2 sequence (P48546 22-466): T1 sequence (P48546 22-466)
Outline: (§1)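 Cells were stimulated with peptide for 30 min at 37° C, then lysed in buffer carrying cAMP-d2 and anti-cAMP Eu3+-cryptate for a competitive HTRF read after at least 60 min at room temperature. The 665/620 nm ratio was converted to nM cAMP against a standard curve.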

hGCGR = target: T3, hGCGR (Homo sapiens, UniProt P47871); experiment: Functional cAMP formation (HTRF) in HEK-293 clonal cells expressing hGCGR, 0.1% bovine casein, without or with 1.0% human serum albumin; assay type: cell-based; conditions: cAMP, 37° C.
T3 construct: expressed in transfected cells
Outline: as §1

hGLP-1R = hGLP-1R (Homo sapiens, UniProt P43220); experiment: Functional cAMP formation (HTRF) in HEK-293 clonal cells expressing hGLP-1R, 0.1% bovine casein, without or with 1.0% human serum albumin; assay type: cell-based; set-up: expressed in transfected cells; conditions: for Emax: percent of maximal response to GLP-1(7-36)NH2; for EC50: cAMP
Outline: as §1

[2] = HEK293, read-out: hGIPR Emax, % ± SEM, cAMP, 37° C., 0.1% bovine casein and 1.0% human serum albumin
[3] = HEK293, read-out: hGIPR Emax, % ± SEM, cAMP, 37° C., 0.1% bovine casein, arithmetic mean
[4] = hGIPR EC50, nM (SEM, n), 37° C., 0.1% bovine casein (no human serum albumin), geometric mean
[5] = hGCGR EC50, nM (SEM, n), 0.1% bovine casein (no human serum albumin), geometric mean
[6] = hGCGR EC50, nM (SEM, n), 0.1% bovine casein and 1.0% human serum albumin, geometric mean (SEM, n)
[7] = HEK293, read-out: hGLP-1R Emax, % ± SEM, cAMP, 37° C., 0.1% bovine casein, arithmetic mean
[8] = hGLP-1R EC50, nM (SEM, n), 37° C., 0.1% bovine casein (no human serum albumin), geometric mean
[9] = human GIPR, geometric mean (SEM, n), read-out: Binding Affinity Ki, nM (SEM, n) hGIPR
[10] = HEK293, cAMP, 37° C., 0.1% bovine casein and 1.0% human serum albumin, read-out: hGIPR Emax, % ± SEM
[11] = 37° C., 0.1% bovine casein (no human serum albumin), geometric mean, read-out: hGIPR EC50, nM (SEM, n)
[12] = 37° C., 0.1% bovine casein and 1.0% human serum albumin, geometric mean (SEM, n), read-out: hGIPR EC50, nM (SEM, n)
[13] = 0.1% bovine casein (no human serum albumin), geometric mean, read-out: hGCGR EC50, nM (SEM, n)
[14] = 0.1% bovine casein and 1.0% human serum albumin, geometric mean (SEM, n), read-out: hGCGR EC50, nM (SEM, n)
[15] = HEK293, cAMP, 37° C., 0.1% bovine casein, arithmetic mean, read-out: hGLP-1R Emax, % ± SEM
[16] = 37° C., 0.1% bovine casein (no human serum albumin), geometric mean, read-out: hGLP-1R EC50, nM (SEM, n)

T3 sequence (P47871 26-477): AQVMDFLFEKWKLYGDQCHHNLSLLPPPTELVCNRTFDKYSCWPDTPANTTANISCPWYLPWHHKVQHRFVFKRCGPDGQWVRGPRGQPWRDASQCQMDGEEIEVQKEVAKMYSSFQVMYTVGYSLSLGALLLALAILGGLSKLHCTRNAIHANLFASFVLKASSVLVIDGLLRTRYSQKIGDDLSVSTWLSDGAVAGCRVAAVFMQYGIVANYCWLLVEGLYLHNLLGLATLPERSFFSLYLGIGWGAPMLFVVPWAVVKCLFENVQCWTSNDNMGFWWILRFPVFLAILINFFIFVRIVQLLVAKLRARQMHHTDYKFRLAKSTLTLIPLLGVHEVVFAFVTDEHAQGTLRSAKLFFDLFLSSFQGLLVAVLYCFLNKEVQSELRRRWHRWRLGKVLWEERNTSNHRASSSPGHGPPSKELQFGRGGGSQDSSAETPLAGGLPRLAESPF
Sequence of hGLP-1R (P43220 24-463): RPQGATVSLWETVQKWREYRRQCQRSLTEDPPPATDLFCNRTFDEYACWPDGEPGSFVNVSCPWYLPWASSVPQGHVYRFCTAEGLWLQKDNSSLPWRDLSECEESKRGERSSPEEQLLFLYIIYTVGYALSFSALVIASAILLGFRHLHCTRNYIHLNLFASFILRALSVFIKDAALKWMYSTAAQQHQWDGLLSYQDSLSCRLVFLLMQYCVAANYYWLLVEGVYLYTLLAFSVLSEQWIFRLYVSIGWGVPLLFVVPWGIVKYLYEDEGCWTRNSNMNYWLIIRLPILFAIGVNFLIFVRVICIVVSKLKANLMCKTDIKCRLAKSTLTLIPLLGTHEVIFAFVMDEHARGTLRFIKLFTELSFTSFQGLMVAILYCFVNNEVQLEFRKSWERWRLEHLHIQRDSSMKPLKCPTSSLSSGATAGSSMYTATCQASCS

| Compound | Ki [1] | Emax (hGIPR; [2]) | Emax (hGIPR; [3]) | EC50 (hGIPR; [4]) | EC50 (hGCGR; [5]) | EC50 (hGCGR; [6]) | Emax (hGLP-1R; [7]) | EC50 (hGLP-1R; [8]) | Ki [1, 9] | Emax (hGIPR; [10]) | EC50 (hGIPR; [11]) | EC50 (hGIPR; [12]) | EC50 (hGCGR; [13]) | EC50 (hGCGR; [14]) | Emax (hGLP-1R; [15]) | EC50 (hGLP-1R; [16]) | EC50 (hGLP-1R; 37° C., 0.1% bovine casein and 1.0% human serum albumin, geometric mean (SEM, n), read-out: hGLP-1R EC50, nM (SEM, n)) | Emax (hGLP-1R; HEK293, read-out: hGLP-1R Emax, % ± SEM, cAMP, 37° C., 0.1% bovine casein and 1.0% human serum albumin) | EC50 (hGLP-1R; hGLP-1R EC50, nM (SEM, n), 37° C., 0.1% bovine casein and 1.0% human serum albumin, geometric mean (SEM, n)) | Emax (hGIPR; HEK293, cAMP, 37° C., 0.1% bovine casein, arithmetic mean, read-out: hGIPR Emax, % ± SEM) |
| --- | --- | --- | --- | --- | --- | --- | --- | --- | --- | --- | --- | --- | --- | --- | --- | --- | --- | --- | --- | --- |
| CC[C@H](C)[C@H](NC(=O)[C@H](CC(C)C)NC(=O)[C@](C)(Cc1ccc(O)cc1)NC(=O)[C@H](CCCCNC(=O)CCOCCOCCOCCOCCOCCOCCNC(=O)CC[C@H](NC(=O)CCCCCCCCCOc1ccc(C(=O)O)cc1)C(=O)O)NC(=O)[C@@H](NC(=O)[C@H](Cc1ccccc1)NC(=O)[C@H](CCCN)NC(=O)C(C)(C)NC(=O)[C@H](CCC(N)=O)NC(=O)[C@H](C)NC(=O)[C@H](CCC(N)=O)NC(=O)[C@H](CCCN)NC(=O)[C@H](CC(=O)O)NC(=O)[C@H](CC(C)C)NC(=O)[C@](C)(CC(C)C)NC(=O)[C@@H](NC(=O)C(C)(C)NC(=O)[C@H](Cc1ccncc1)NC(=O)[C@H](CC(=O)O)NC(=O)[C@H](CO)NC(=O)[C@@H](NC(=O)[C@](C)(Cc1ccccc1F)NC(=O)[C@@H](NC(=O)CNC(=O)[C@H](CCC(=O)O)NC(=O)C(C)(C)NC(=O)[C@@H](N)Cc1ccc(O)cc1)[C@@H](C)O)[C@@H](C)O)[C@@H](C)CC)[C@@H](C)CC)C(=O)N[C@@H](CCCCNC(=O)CCOCCOCCOCCOCCOCCOCCNC(=O)CC[C@H](NC(=O)CCCCCCCCCOc1ccc(C(=O)O)cc1)C(=O)O)C(=O)NCC(=O)NCC(=O)N1CCC[C@H]1C(=O)N[C@@H](CO)C(=O)N[C@@H](CO)C(=O)NCC(=O)N[C@@H](C)C(=O)N1CCC[C@H]1C(=O)N1CCC[C@H]1C(=O)N1CCC[C@H]1C(=O)N[C@@H](CO)C(N)=O [Example 468] | 0.0291 nM | 85.9% | 97.1% | 0.00991 nM | > 10100 nM | > 10100 nM | 109% | 0.168 nM |  |  |  |  |  |  |  |  |  |  |  |  |
| CC[C@H](C)[C@H](NC(=O)[C@H](CC(C)C)NC(=O)[C@](C)(Cc1ccc(O)cc1)NC(=O)[C@H](CCCCNC(=O)COCCOCCNC(=O)COCCOCCNC(=O)COCCOCCNC(=O)CC[C@H](NC(=O)CCCCCCCCCCCCC(=O)O)C(=O)O)NC(=O)[C@@H](NC(=O)[C@H](Cc1ccccc1)NC(=O)[C@H](CCCN)NC(=O)C(C)(C)NC(=O)[C@H](CCC(N)=O)NC(=O)[C@H](C)NC(=O)[C@H](CCC(N)=O)NC(=O)[C@H](CCCN)NC(=O)[C@H](CC(=O)O)NC(=O)[C@H](CC(C)C)NC(=O)[C@](C)(CC(C)C)NC(=O)[C@@H](NC(=O)C(C)(C)NC(=O)[C@H](Cc1ccncc1)NC(=O)[C@H](CC(=O)O)NC(=O)[C@H](CO)NC(=O)[C@@H](NC(=O)[C@](C)(Cc1ccccc1F)NC(=O)[C@@H](NC(=O)CNC(=O)[C@H](CCC(=O)O)NC(=O)C(C)(C)NC(=O)[C@@H](N)Cc1ccc(O)cc1)[C@@H](C)O)[C@@H](C)O)[C@@H](C)CC)[C@@H](C)CC)C(=O)N[C@@H](CCCCNC(=O)COCCOCCNC(=O)COCCOCCNC(=O)COCCOCCNC(=O)CC[C@H](NC(=O)CCCCCCCCCCCCC(=O)O)C(=O)O)C(=O)NCC(=O)NCC(=O)N1CCC[C@H]1C(=O)N[C@@H](CO)C(=O)N[C@@H](CO)C(=O)NCC(=O)N[C@@H](C)C(=O)N1CCC[C@H]1C(=O)N1CCC[C@H]1C(=O)N1CCC[C@H]1C(=O)N[C@@H](CO)C(N)=O [Example 476] |  |  |  |  |  |  |  |  | 0.0351 nM | 81.8% | 0.00886 nM | 0.154 nM | > 9950 nM | > 9950 nM | 114% | 0.117 nM | 1.5 nM |  |  |  |
| CC[C@H](C)[C@H](NC(=O)[C@H](CCCN)NC(=O)[C@H](CC(=O)O)NC(=O)[C@H](CC(C)C)NC(=O)[C@](C)(CC(C)C)NC(=O)[C@@H](NC(=O)C(C)(C)NC(=O)[C@H](Cc1ccc(O)cc1)NC(=O)[C@H](CC(=O)O)NC(=O)[C@H](CO)NC(=O)[C@@H](NC(=O)[C@](C)(Cc1ccccc1F)NC(=O)[C@@H](NC(=O)CNC(=O)[C@H](CCC(=O)O)NC(=O)C(C)(C)NC(=O)[C@@H](N)Cc1ccc(O)cc1)[C@@H](C)O)[C@@H](C)O)[C@@H](C)CC)C(=O)N[C@@H](C)C(=O)N[C@@H](CCC(N)=O)C(=O)NC(C)(C)C(=O)N[C@@H](CCCN)C(=O)N[C@@H](Cc1ccccc1)C(=O)N[C@H](C(=O)N[C@@H](CCCCNC(=O)COCCOCCNC(=O)COCCOCCNC(=O)COCCOCCNC(=O)CC[C@H](NC(=O)CCCCCCCCCOc1ccc(C(=O)O)cc1)C(=O)O)C(=O)N[C@@](C)(Cc1ccc(O)cc1)C(=O)N[C@@H](CC(C)C)C(=O)N[C@H](C(=O)N[C@@H](CCCCNC(=O)COCCOCCNC(=O)COCCOCCNC(=O)COCCOCCNC(=O)CC[C@H](NC(=O)CCCCCCCCCOc1ccc(C(=O)O)cc1)C(=O)O)C(=O)NCC(=O)NCC(=O)N1CCC[C@H]1C(=O)N[C@@H](CO)C(=O)N[C@@H](CO)C(=O)NCC(=O)N[C@@H](C)C(=O)N1CCC[C@H]1C(=O)N1CCC[C@H]1C(=O)N1CCC[C@H]1C(=O)N[C@@H](CO)C(N)=O)[C@@H](C)CC)[C@@H](C)CC [Example 481] | 0.0266 nM | 82.7% | 97.9% | 0.0181 nM | > 9950 nM | > 9950 nM | 111% | 0.279 nM |  |  |  |  |  |  |  |  |  | 112% | 6.16 nM |  |
| CCCC[C@H](NC(=O)[C@H](CC(=O)O)NC(=O)[C@H](CO)NC(=O)[C@@H](NC(=O)[C@](C)(Cc1ccccc1F)NC(=O)[C@@H](NC(=O)CNC(=O)[C@H](CCC(=O)O)NC(=O)C(C)(C)NC(=O)[C@@H](N)Cc1ccc(O)cc1)[C@@H](C)O)[C@@H](C)O)C(=O)N[C@@H](CO)C(=O)N[C@H](C(=O)N[C@@](C)(CC(C)C)C(=O)N[C@@H](CC(C)C)C(=O)N[C@@H](CC(=O)O)C(=O)N[C@@H](CCCN)C(=O)N[C@@H](CCC(N)=O)C(=O)N[C@@H](C)C(=O)N[C@@H](CCC(N)=O)C(=O)NC(C)(C)C(=O)N[C@@H](CCCN)C(=O)N[C@@H](Cc1ccccc1)C(=O)N[C@H](C(=O)N[C@@H](CCCCNC(=O)COCCOCCNC(=O)COCCOCCNC(=O)CC[C@H](NC(=O)CCCCCCCCCCCCC(=O)O)C(=O)O)C(=O)N[C@@](C)(Cc1ccc(O)cc1)C(=O)N[C@@H](CC(C)C)C(=O)N[C@H](C(=O)N[C@@H](CCCCNC(=O)COCCOCCNC(=O)COCCOCCNC(=O)CC[C@H](NC(=O)CCCCCCCCCCCCC(=O)O)C(=O)O)C(=O)NCC(=O)NCC(=O)N1CCC[C@H]1C(=O)N[C@@H](CO)C(=O)N[C@@H](CO)C(=O)NCC(=O)N[C@@H](C)C(=O)N1CCC[C@H]1C(=O)N1CCC[C@H]1C(=O)N1CCC[C@H]1C(=O)N[C@@H](CO)C(N)=O)[C@@H](C)CC)[C@@H](C)CC)[C@@H](C)CC [Example 490] |  |  |  |  |  |  |  |  | 0.0288 nM | 97.1% | 0.0122 nM | 0.976 nM | > 9950 nM | > 9950 nM | 115% | 0.143 nM |  |  |  | 110% |

Source: patent US20230265151A1, “GIP/GLP1 CO-AGONIST COMPOUNDS” (priority 2020, published 2023)
